pIC50: −log10 of the molar value. Like-named read-outs stand apart in the source and are kept apart here.

Test [1] deals with T1, ResT (Borreliella burgdorferi, UniProt O50979).
T1 construct: made in house; host or cells: E. coli BL21 (lambda DE3) pLysS, strain BGC88 carrying pKK4
T1 sequence (O50979 1-449): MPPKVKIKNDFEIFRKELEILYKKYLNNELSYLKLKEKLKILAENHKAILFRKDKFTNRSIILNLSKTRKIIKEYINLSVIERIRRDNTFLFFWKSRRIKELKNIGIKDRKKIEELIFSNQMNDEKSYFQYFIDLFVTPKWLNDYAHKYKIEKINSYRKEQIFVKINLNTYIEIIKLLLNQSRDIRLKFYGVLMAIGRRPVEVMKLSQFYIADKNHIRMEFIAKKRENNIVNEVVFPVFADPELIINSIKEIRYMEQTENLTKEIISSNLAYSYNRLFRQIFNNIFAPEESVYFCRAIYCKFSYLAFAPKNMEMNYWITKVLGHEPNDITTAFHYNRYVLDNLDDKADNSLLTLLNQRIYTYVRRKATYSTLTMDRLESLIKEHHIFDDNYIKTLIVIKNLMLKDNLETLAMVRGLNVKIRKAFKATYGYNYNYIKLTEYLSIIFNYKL
Nature of the test: In vitro telomere resolution by ResT (plasmid substrate, agarose gel). The test is classed as biochemical. Conditions: for effect of peptide on in vitro ResT activity: peptide inhibitors of tyrosine recombinase or topoisomerase, FIG. 9; for concentration at which complete inhibition of ResT activity was observed: pYT1 as the substrate, agarose gel, FIG. 8A; for inhibition of ResT: 2 mM, data not shown. As to the method: The activity of the purified recombinant protein (ResT) was assayed using plasmids previously established to be in vivo substrates for telomere resolution in B. burgdorferi (Chaconas et al., 2001). pGCL15-6 has a 70 bp replicated left-end telomere from the linear plasmid Ip17 (FIG. 1B). Typical reaction conditions, herein defined as 1× reaction are as follows: 25 mM Tris-HCl [pH 8.5], 100 mM NaCl, 1 mM EDTA, 5 mM spermidine, 100 μg/ml bovine serum albumin, 5 μg/ml substrate DNA and 2 μg/ml ResT. Reactions (typically 30 μl) were incubated at 30° C. for 30 min and terminated by addition of SDS to a final concentration of 0.5%. Spermidine contributes an approximate 3-fold stimulation to the reaction and was therefore omitted from the reactions used for cleavage site determination. Linearized and relaxed plasmid substrates were prepared in 10-20 μg batches by reaction with the specified restriction enzyme with the manufacturers buffers or with Shope Fibroma Virus topoisomerase I (gift of Dr. David Evans, University of Guelph), in ResT reaction buffer. These reactions were then extracted with phenol/chloroform, chloroform alone, and subsequently ethanol precipitated and resuspended in 25 mM Hepes-NaOH [pH 7.6], 0.1 mM EDTA.
Reactions were performed containing increasing amounts of the topoisomerase inhibitors coumermycin A1 or novobiocin. The reactions were analyzed by agarose gel electrophoresis followed by staining with ethidium bromide.
In vitro ResT activity was assayed in the presence of peptide inhibitors provided by Dr. Anca Segall, San Diego State University. These peptides were previously characterized as inhibitors of tyrosine recombinase or topoisomerase activity (Cassell et al., 2000; Klemm et al., 2000). […] The results also raise the possibility for further development of peptide inhibitors of ResT for therapeutic and/or environmental agents to inhibit growth of Borrelia species.

Test [2] concerns B. burgdorferi strain (NGR) carrying a triple mutation in the gyrB gene. Nature of the test: Growth of B. burgdorferi strain (NGR) carrying coumarin-resistant gyrase in culture. It counts as cell-based, Borrelia burgdorferi. Conditions: read-out: IC50, inhibition of growth of B. burgdorferi carrying the resistant gyrase. As to the method: To determine whether coumermycin Al and novobiocin could block growth of B. burgdorferi in culture, a B. burgdorferi strain (NGR) carrying a triple mutation in the gyrB gene (Knight et al., 2000; Rosa et al., 1996) was used (provided by Dr. D. Scott Samuels, University of Montana, Missoula). The triple mutation in the gyrase B subunit renders the mutant DNA gyrase resistant to coumermycin A1 and novobiocin. B. burgdorferi carrying the resistant gyrase was grown in the absence, or in the presence of increasing amounts of coumermycin A1 or novobiocin. […] The drug concentrations for complete inhibition of growth were almost identical to the concentrations of both drugs required for complete inhibition of ResT in vitro.

Turning to “peptide #59: peptide which inhibits DNA cleavage by λ integrase (KWWCRW; Peptide #59)”, the “effect of peptide on in vitro ResT activity” value in test [1] is listed as “mild stimulator”.
Usually pIC50 stands for −log10 of the IC50, conventionally taken in molar units. In the case of `CO[C@@H]1[C@@H](OC(N)=O)[C@@H](O)[C@H](Oc2ccc3c(O)c(NC(=O)c4ccc(O)c(CC=C(C)C)c4)c(=O)oc3c2C)OC1(C)C` [novobiocin], the “concentration at which complete inhibition of ResT activity was observed” value in test [1] was found to be 1 mM. In addition, the pIC50 in test [2] (Borreliella burgdorferi) is 3.59.
As for “Peptide #52: peptide which traps the Holliday junction intermediate in λ recombination (WKHYNY; Peptide #52)”, the “effect of peptide on in vitro ResT activity” value in test [1] is recorded as “did not have any effect”.
coumermycin A1: the “concentration at which complete inhibition of ResT activity was observed” value in test [1] came out at 0.15 mM. The pIC50 in test [2] (gyrB triple mutant strain NGR, FIG. 8B) is 4.12.
`CC[C@@]1(O)C(=O)OCc2c1cc1n(c2=O)Cc2cc3ccccc3nc2-1` [camptothecin]: in test [1], the “inhibition of ResT” value is “did not inhibit”.
Still for that read-out and setting: in the case of `CCn1cc(C(=O)O)c(=O)c2ccc(C)nc21` [nalidixic acid] it was “did not inhibit”.
As to `NCCCCNCCCN` [spermidine], the “stimulation of the in vitro telomere resolution reaction” value in test [1] (5 mM spermidine in 1× reaction) was roughly 3 fold.

These data come from patent US20030170693A1, “Assay for identifying modulators of Borrelia telomere resolvase” (priority 2001, published 2003).
